Source: US8163724B2, “Glucocorticosteroids, processes for their preparation, pharmaceutical compositions containing them and their use in therapy” (AstraZeneca AB, priority 2007, dated 2012)
Read-outs that look alike come from different tables or passages of the source.

Biological target: T1, recombinant human GR (Homo sapiens, UniProt P04150)
T1 construct: purchased Panvera/Invitrogen P2812 (kit P2893)
T1 sequence (P04150 1-777): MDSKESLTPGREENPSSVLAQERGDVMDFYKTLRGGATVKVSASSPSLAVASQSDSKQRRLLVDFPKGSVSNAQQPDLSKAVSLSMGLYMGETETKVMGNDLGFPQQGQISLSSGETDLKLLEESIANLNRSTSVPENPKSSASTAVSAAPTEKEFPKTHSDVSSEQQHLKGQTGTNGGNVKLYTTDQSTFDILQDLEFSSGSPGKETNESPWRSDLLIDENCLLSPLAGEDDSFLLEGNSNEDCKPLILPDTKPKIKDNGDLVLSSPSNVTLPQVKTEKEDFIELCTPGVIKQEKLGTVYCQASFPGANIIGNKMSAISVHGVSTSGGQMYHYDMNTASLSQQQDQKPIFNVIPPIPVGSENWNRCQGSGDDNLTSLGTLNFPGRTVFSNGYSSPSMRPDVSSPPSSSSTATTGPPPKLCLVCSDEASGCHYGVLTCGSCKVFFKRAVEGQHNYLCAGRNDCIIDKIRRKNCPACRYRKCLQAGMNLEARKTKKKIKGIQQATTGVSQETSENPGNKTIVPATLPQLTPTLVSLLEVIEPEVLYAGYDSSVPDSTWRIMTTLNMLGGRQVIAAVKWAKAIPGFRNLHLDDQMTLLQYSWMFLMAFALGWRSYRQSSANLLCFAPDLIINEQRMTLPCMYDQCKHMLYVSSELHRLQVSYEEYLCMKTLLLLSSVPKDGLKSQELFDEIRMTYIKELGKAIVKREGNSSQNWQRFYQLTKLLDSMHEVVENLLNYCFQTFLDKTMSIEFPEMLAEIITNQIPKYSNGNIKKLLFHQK
Test: Human Glucocorticoid Receptor (GR) Assay (fluorescence polarization, Panvera/Invitrogen kit)
Type: binding
Method: Human Glucocorticoid Receptor (GR) Assay
The assay is based on a commercial kit from Panvera/Invitrogen (Part number P2893). The assay technology is fluorescence polarization. […] The GR and Stabilizing Peptide reagents are stored at −70° C. while the GS Red is stored at −20° C. Also included in the kit are 1M DTT (Panvera, Part number P2325, stored at −20° C.) and GR Screening buffer 10× (Panvera, Part number P2814, stored at −70° C. initially but once thawed stored at room temperature). Avoid repeated freeze/thaws for all reagents. The GR Screening buffer 10× comprises 100 mM potassium phosphate, 200 mM sodium molybdate, 1 mM EDTA and 20% DMSO.
0% control was 100% DMSO and 100% control was 10 μM Dexamethasone. Background solution (8 μL; assay buffer 10×, Stabilizing Peptide, DTT and ice cold MQ water) was added to the background wells. GS Red solution (7 μL; assay buffer 10×, Stabilizing Peptide, DTT, GS Red and ice cold water) was added to all wells except background wells. GR solution (7 μL; assay buffer 10×, Stabilizing Peptide, DTT, GR and ice cold water) was added to all wells. The plate was sealed and incubated in a dark at room temperature for 2 hours.

[1] = fluorescence polarization, GS Red tracer, 2 hours at room temperature, 100% control 10 μM Dexamethasone, read-out: Inhibition of GR binding, IC50

SMILES	IC50 [1] [nM]	IC50 [nM]
CC(=O)CSC(=O)[C@@]1(OC(=O)c2cocn2)CC[C@H]2[C@@H]3CCC4=Cc5c(cnn5-c5ccc(F)cc5)C[C@]4(C)[C@H]3[C@@H](O)C[C@@]21C [Example 46, (1R,3aS,3bS,10aR,10bS,11S,12aS)-7-(4-Fluorophenyl)-11-hydroxy-10a,12a-dimethyl-1-{[(2-oxopropyl)thio]carbonyl}-1,2,3,3a,3b,4,5,7,10,10a,10b,11,12,12a-tetradecahydropcyclopenta[5,6]naphtho[1,2-f]indazol-1-yl 1,3-oxazole-4-carboxylate]	3.9	–
C[C@]12Cc3cnn(-c4ccc(F)cc4)c3C=C1CC[C@H]1[C@@H]3CC[C@](OC(=O)c4cocn4)(C(=O)SCF)[C@@]3(C)C[C@H](O)[C@@]12F [Example 202, (1R,3aS,3bS,10aS,10bR,11S,12aS)-1-{[(Fluoromethyl)sulfanyl]carbonyl}-10b-fluoro-7-(4-fluorophenyl)-11-hydroxy-10a,12a-dimethyl-1,2,3,3a,3b,4,5,7,10,10a,10b,11,12,12a-tetradecahydrocyclopenta[5,6]naphtho[1,2-f]indazol-1-yl 1,3-oxazole-4-carboxylate]	5.8	–
C[C@]12Cc3cnn(-c4ccc(F)cc4)c3C=C1CC[C@@H]1[C@@H]2[C@@H](O)C[C@@]2(C)[C@H]1CC[C@]2(OC(=O)C1CCCCO1)C(=O)SCC#N (single isomer, unassigned) [Example 136]	4.5	–
COCCC(=O)O[C@]1(C(=O)SCF)CC[C@H]2[C@@H]3CCC4=Cc5c(cnn5-c5ccc(F)cc5)C[C@]4(C)[C@H]3[C@@H](O)C[C@@]21C [Example 63, (1R,3aS,3bS,10aR,10bS,11S,12aS)-1-{[(Fluoromethyl)thio]carbonyl}-7-(4-fluorophenyl)-11-hydroxy-10a,12a-dimethyl-1,2,3,3a,3b,4,5,7,10,10a,10b,11,12,12a-tetradecahydropcyclopenta[5,6]naphtho[1,2-f]indazol-1-yl 3-methoxypropanoate]	3.3	–
CSCO[C@]1(C(=O)SCF)CC[C@H]2[C@@H]3CCC4=Cc5c(cnn5-c5ccc(F)cc5)C[C@]4(C)[C@H]3[C@@H](O)C[C@@]21C [Example 125, S-(Fluoromethyl)(1R,3aS,3bS,10aR,10bS,11S,12aS)-7-(4-fluorophenyl)-11-hydroxy-10a,12a-dimethyl-1-[(methylsulfanyl)methoxy]1,2,3,3a,3b,4,5,7,10,10a,10b,11,12,12a-tetradecahydrocyclopenta[5,6]naphtho[1,2-f]indazole-1-carbothioate]	4.7	–
C[C@]12Cc3cnn(-c4ccc(F)cc4)c3C=C1CC[C@@H]1[C@@H]2[C@@H](O)C[C@@]2(C)[C@H]1CC[C@]2(OC(=O)CF)C(=O)SCC#N [Example 27, (1R,3aS,3bS,10aR,10bS,1,1S,12aS)-1-{[(Cyanomethyl)thio]carbonyl}-7-(4-fluoro-phenyl)-11-hydroxy-10a,12a-dimethyl-1,2,3,3a,3b,4,5,7,10,10a,10b,11,12,12a-tetradecahydrocyclopenta[5,6]naphtho[1,2-f]indazol-1-yl fluoroacetate]	–	3
Cn1cc(C(=O)O[C@]2(C(=O)SCCO)CC[C@H]3[C@@H]4CCC5=Cc6c(cnn6-c6ccc(F)cc6)C[C@]5(C)[C@H]4[C@@H](O)C[C@@]32C)nn1 [Example 49, (1R,3aS,3bS,10aR,10bS,11S,12aS)-7-(4-Fluorophenyl)-11-hydroxy-1-{[(2-hydroxy-ethyl)thio]carbonyl}-10a,12a-dimethyl-1,2,3,3a,3b,4,5,7,10,10a,10b,11,12,12a-tetradecahydrocyclopenta[5,6]naphtho[1,2-f]indazol-1-yl 1-methyl-1H-1,2,3-triazole-4-carboxylate]	3.5	–
C[C@]12Cc3cnn(-c4ccc(F)cc4)c3C=C1CC[C@@H]1[C@@H]2[C@@H](O)C[C@@]2(C)[C@H]1CC[C@]2(OC(=O)c1cccs1)C(=O)SCC#N [Example 115, (1R,3aS,3bS,10aR,10bS,11S,12aS)-1-{[(Cyanomethyl)sulfanyl]carbonyl}-7-(4-fluorophenyl)-11-hydroxy-10a,12a-dimethyl-1,2,3,3a,3b,4,5,7,10,10a,10b,11,12,12a-tetradecahydrocyclopenta[5,6]naphtho[1,2-f]indazol-1-yl thiophene-2-carboxylate]	10	–
CSC(=O)[C@@]1(OC(=O)c2ccco2)CC[C@H]2[C@@H]3CCC4=Cc5c(cnn5-c5ccc(F)cc5)C[C@]4(C)[C@H]3[C@@H](O)C[C@@]21C [Example 64, (1R,3aS,3bS,10aR,10bS,11S,12aS)-7-(4-Fluorophenyl)-11-hydroxy-10a,12a-dimethyl-1-[(methylthio)carbonyl]-1,2,3,3a,3b,4,5,7,10,10a,10b,11,12,12a-tetradecahydropcyclopenta[5,6]naphtho[1,2-f]indazol-1-yl furan-2-carboxylate]	5.8	–
C[C@]12Cc3cnn(-c4ccc(F)cc4)c3C=C1CC[C@@H]1[C@@H]2[C@@H](O)C[C@@]2(C)[C@H]1CC[C@]2(OC(=O)CC1CCCC1)C(=O)SCC#N [Example 114, (1R,3aS,3bS,10aR,10bS,11S,12aS)-1-{[(Cyanomethyl)sulfanyl]carbonyl}-7-(4-fluorophenyl)-11-hydroxy-10a,12a-dimethyl-1,2,3,3a,3b,4,5,7,10,10a,10b,11,12,12a-tetradecahydrocyclopenta[5,6]naphtho[1,2-f]indazol-1-yl cyclopentylacetate]	16	–
C[C@]12Cc3cnn(-c4ccc(F)cc4)c3C=C1CC[C@@H]1[C@@H]2[C@@H](O)C[C@@]2(C)[C@H]1CC[C@]2(OC(=O)C1CCOCC1)C(=O)SCC#N [Example 126, (1R,3aS,3bS,10aR,10bS,11S,12aS)-1-{[(Cyanomethyl)sulfanyl]carbonyl}-7-(4-fluorophenyl)-11-hydroxy-10a,12a-dimethyl-1,2,3,3a,3b,4,5,7,10,10a,10b,11,12,12a-tetradecahydrocyclopenta[5,6]naphtho[1,2-f]indazol-1-yl tetrahydro-2H-pyran-4-carboxylate]	2.7	–
COCC(=O)O[C@]1(C(=O)SCF)CC[C@H]2[C@@H]3C[C@H](C)C4=Cc5c(cnn5-c5ccc(F)cc5)C[C@]4(C)[C@H]3[C@@H](O)C[C@@]21C [Example 216, (1R,3aS,3bS,5S,10aR,10bS,11S,12aS)-1-{[(Fluoromethyl)sulfanyl]carbonyl}-7-(4-fluorophenyl)-11-hydroxy-5,10a,12a-trimethyl-1,2,3,3a,3b,4,5,7,10,10a,10b,11,12,12a-tetradecahydrocyclopenta[5,6]naphtho[1,2]-indazol-1-yl methoxyacetate]	8.8	–
CCC(=O)O[C@]1(C(=O)SCOC)CC[C@H]2[C@@H]3CCC4=Cc5c(cnn5-c5ccc(F)nc5)C[C@]4(C)[C@H]3[C@@H](O)C[C@@]21C [Example 98, (1R,3aS,3bS,10aR,10bS,11S,12aS)-7-(6-Fluoropyridin-3-yl)-11-hydroxy-1-{[(methoxymethyl)sulfanyl]carbonyl}-10a,12a-dimethyl-1,2,3,3a,3b,4,5,7,10,10a,10b,11,12,12a-tetradecahydrocyclopenta[5,6]naphtho[1,2-f]indazol-1-yl propanoate]	3.1	–
C[C@]12Cc3cnn(-c4ccc(F)nc4)c3C=C1CC[C@@H]1[C@@H]2[C@@H](O)C[C@@]2(C)[C@H]1CC[C@]2(OC(=O)[C@H]1CCCO1)C(=O)SCC#N [Example 185, (1R,3aS,3bS,10aR,10bS,11S,12aS)-1-{[(Cyanomethyl)sulfanyl]carbonyl}-7-(6-fluoropyridin-3-yl)-11-hydroxy-10a,12a-dimethyl-1,2,3,3a,3b,4,5,7,10,10a,10b,11,12,12a-tetradecahydrocyclopenta[5,6]naphtho[1,2-f]indazol-1-yl (2R)-tetrahydrofuran-2-carboxylate]	2.7	–
